{"source": "patent US7772383B2", "about": "“Chemical PCR: Compositions for enhancing polynucleotide amplification reactions” (The Trustees of Princeton University, priority 2002, dated 2010)", "biological_target": "T1, Taq polymerase (Thermus aquaticus, UniProt P19821)", "T1 construct": "purchased Stratagene", "T1 sequence (P19821 whole entry)": "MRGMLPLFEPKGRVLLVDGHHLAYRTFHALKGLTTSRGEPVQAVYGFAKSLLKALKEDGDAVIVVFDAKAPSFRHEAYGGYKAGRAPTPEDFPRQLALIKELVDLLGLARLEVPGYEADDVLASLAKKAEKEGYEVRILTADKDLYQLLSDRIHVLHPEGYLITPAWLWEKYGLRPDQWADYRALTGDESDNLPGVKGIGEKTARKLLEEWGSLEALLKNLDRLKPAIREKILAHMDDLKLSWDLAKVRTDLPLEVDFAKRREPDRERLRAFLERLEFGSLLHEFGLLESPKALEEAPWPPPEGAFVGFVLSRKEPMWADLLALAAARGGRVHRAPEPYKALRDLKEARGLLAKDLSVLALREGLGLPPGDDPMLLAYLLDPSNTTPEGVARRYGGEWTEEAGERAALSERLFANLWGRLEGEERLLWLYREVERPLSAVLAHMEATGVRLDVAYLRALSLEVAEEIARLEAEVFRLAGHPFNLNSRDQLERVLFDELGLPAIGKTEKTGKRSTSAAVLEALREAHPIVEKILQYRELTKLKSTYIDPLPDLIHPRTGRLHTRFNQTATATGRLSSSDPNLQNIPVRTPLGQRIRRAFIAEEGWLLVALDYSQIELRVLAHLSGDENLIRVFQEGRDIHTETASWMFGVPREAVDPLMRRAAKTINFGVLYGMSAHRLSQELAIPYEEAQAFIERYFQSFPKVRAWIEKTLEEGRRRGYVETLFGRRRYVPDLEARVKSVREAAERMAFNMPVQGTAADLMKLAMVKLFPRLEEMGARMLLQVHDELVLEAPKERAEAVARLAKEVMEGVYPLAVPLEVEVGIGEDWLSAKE", "experiment": "Taq polymerase activity assays at low temperature in the presence of additives", "format": "biochemical", "conditions": "for Activity of Taq polymerase / Activation: 1.0M 1,5-pentanediol, 0.7M 1,6-hexanediol; for Activity of Taq polymerase: normalized to activity of control at 62° C.; for Activation: change in Taq activity versus control", "procedure": "The measured polymerase activity, then, is in fact a function of two variables—temperature and additive concentration. The plot of measured activity versus temperature and additive concentration is a two-dimensional surface. While a truly comprehensive search for maximal polymerase activity would entail screening this entire surface, the number of experiments required to do so would of course be impractical. Therefore, polymerase activity was measured first as a function of temperature in the absence of additives and at one given, high additive concentration. The temperature that yielded the maximum activity of the polymerase at that concentration was then targeted for concentration gradient studies.\nFirst, polymerase activity assays were carried out in the absence of additives and in the presence of 1.0M 1,5-pentanediol and 0.7M 1,6-hexanediol at temperatures between 46 and 62° C. Next, polymerase activity was studied at 53° C. in the presence of concentration gradients of 1,5-pentanediol, 2-pyrrolidone, sulfolane and tetramethylene sulfoxide. The concentrations tested were: 1,5-pentanediol: 1.0, 1.3, 1.5, 2.25, 3.0 and 3.5M; 2-pyrrolidone: 1.25, 1.5, 2.0 and 3.9M; sulfolane: 1.0, 1.5, 2.0 and 2.75M, tetramethylene sulfoxide: 1.0, 1.5, 2.0 and 3.0M.", "data": [{"smiles": "OCCCCCO", "note": "[1,5-Pentanediol]", "values": [{"measurement": "Activation of Taq polymerase", "setting": "1.0M, within 49° C.-53° C.", "value": "exceeds 25%"}, {"measurement": "Activity of Taq polymerase", "setting": "47° C.", "value": 0.30}, {"measurement": "Activation", "setting": "47° C.", "value": "−9", "unit": "%"}, {"measurement": "Activity of Taq polymerase", "setting": "48° C.", "value": 0.40}, {"measurement": "Activation", "setting": "48° C.", "value": "−3", "unit": "%"}, {"measurement": "Activity of Taq polymerase", "setting": "49° C.", "value": 0.54}, {"measurement": "Activation", "setting": "49° C.", "value": "+10%"}, {"measurement": "Activity of Taq polymerase", "setting": "50° C.", "value": 0.59}, {"measurement": "Activation", "setting": "50° C.", "value": "+18%"}, {"measurement": "Activity of Taq polymerase", "setting": "51° C.", "value": 0.64}, {"measurement": "Activation", "setting": "51° C.", "value": "+21%"}, {"measurement": "Activity of Taq polymerase", "setting": "52° C.", "value": 0.69}, {"measurement": "Activation", "setting": "52° C.", "value": "+35%"}, {"measurement": "Activity of Taq polymerase", "setting": "53° C.", "value": 0.70}, {"measurement": "Taq polymerase activity at 3.5M (in words)", "setting": "53° C., 3.5M (36.4%)", "value": "residual activity"}, {"measurement": "Activation", "setting": "53° C.", "value": "+23%"}, {"measurement": "effect on Taq polymerase activity at high concentrations (in words)", "setting": "53° C., concentration gradients, compared with 2-pyrrolidone, sulfolane and tetramethylene sulfoxide", "value": "compromises polymerase activity to the least extent"}, {"measurement": "Activity of Taq polymerase", "setting": "54° C.", "value": 0.63}, {"measurement": "Activation", "setting": "54° C.", "value": "+3%"}, {"measurement": "Activity of Taq polymerase", "setting": "55° C.", "value": 0.57}, {"measurement": "Activation", "setting": "55° C.", "value": "−19", "unit": "%"}]}]}
